Measurements as given in patent publication US20070003585A1, “Topical skin treating compositions” (STIEFEL LABORATORIES, INC., priority 2005, published 2007).
Read-outs that look alike come from different tables or passages of the source.

How the values were obtained:
[1] = Example 10 composition, initial 1.54%
[2] = Example 13 composition, initial […]
[3] = Storage stability of composition containing 2.02% of benzoyl peroxide and 0.099% of tazarotene (Example 17); type: physicochemical; settings: Example 17 composition, initial 2.02%
Description: (§1) The results are as follows:

[4] = Storage stability of composition containing 2.15% of benzoyl peroxide, […] of tazarotene, and […] of clindamycin (Example 8); type: physicochemical; settings: Example 8 composition, initial 2.15%, 6 months
[5] = Example 11 composition, initial […]
[6] = Storage stability of composition containing 5.18% of benzoyl peroxide and 0.099% of tazarotene (Example 18); type: physicochemical; settings: Example 18 composition, initial 5.18%
Description: as §1

[7] = Example 12 composition, initial […]
[8] = Example 7 composition, initial 5.22%
[9] = Storage stability of composition containing 2.02% of benzoyl peroxide, […] of tazarotene, and […] of clindamycin (Example 9); type: physicochemical; settings: Example 9 composition, initial 2.02%
[10] = Example 6 composition, initial 5.54%

Benzoyl Peroxide (BPO) (as % w/w) ([1]; 6 months, 6° C.): 1.50 % w/w | Benzoyl Peroxide (BPO) (as % w/w) ([1]; 6 months, 25° C.): 1.40 % w/w | Benzoyl Peroxide (BPO) (as % w/w) ([1]; 6 months, 30° C.): 1.40 % w/w | Benzoyl Peroxide (BPO) (as % w/w) ([1]; 6 months, 40° C.): 1.03 % w/w | Benzoyl Peroxide (BPO) (as % w/w) ([1]; 90 days, 6° C.): 1.50 % w/w | Benzoyl Peroxide (BPO) (as % w/w) ([1]; 90 days, 25° C.): 1.44 % w/w | Benzoyl Peroxide (BPO) (as % w/w) ([1]; 90 days, 30° C.): 1.42 % w/w | Benzoyl Peroxide (BPO) (as % w/w) ([1]; 90 days, 40° C.): 1.28 % w/w | Benzoyl Peroxide (BPO) (as % w/w) ([2]; 2 weeks, 6° C.): 0.99 % w/w | Benzoyl Peroxide (BPO) (as % w/w) ([2]; 2 weeks, 25° C.): 0.98 % w/w | Benzoyl Peroxide (BPO) (as % w/w) ([2]; 2 weeks, 30° C.): 0.98 % w/w | Benzoyl Peroxide (BPO) (as % w/w) ([2]; 2 weeks, 40° C.): 0.96 % w/w | Benzoyl Peroxide (BPO) (as % w/w) ([2]; 6 months, 6° C.): 1.02 % w/w | Benzoyl Peroxide (BPO) (as % w/w) ([2]; 6 months, 25° C.): 0.96 % w/w | Benzoyl Peroxide (BPO) (as % w/w) ([2]; 6 months, 30° C.): 0.91 % w/w | Benzoyl Peroxide (BPO) (as % w/w) ([2]; 6 months, 40° C.): 0.40 % w/w | Benzoyl Peroxide (BPO) (as % w/w) ([2]; 90 days, 6° C.): 1.02 % w/w | Benzoyl Peroxide (BPO) (as % w/w) ([2]; 90 days, 25° C.): 0.99 % w/w | Benzoyl Peroxide (BPO) (as % w/w) ([2]; 90 days, 30° C.): 0.95 % w/w | Benzoyl Peroxide (BPO) (as % w/w) ([2]; 90 days, 40° C.): 0.73 % w/w | Benzoyl peroxide (as % w/w) ([3]; 6 months, 6° C.): 2.07 % w/w | Benzoyl peroxide (as % w/w) ([3]; 6 months, 25° C.): 2.03 % w/w | Benzoyl peroxide (as % w/w) ([3]; 6 months, 30° C.): 2.05 % w/w | Benzoyl peroxide (as % w/w) ([3]; 6 months, 40° C.): 1.94 % w/w | Benzoyl peroxide (as % w/w) ([3]; 90 days, 6° C.): 2.09 % w/w | Benzoyl peroxide (as % w/w) ([3]; 90 days, 25° C.): 2.06 % w/w | Benzoyl peroxide (as % w/w) ([3]; 90 days, 30° C.): 2.07 % w/w | Benzoyl peroxide (as % w/w) ([3]; 90 days, 40° C.): 2.01 % w/w | Benzoyl Peroxide (BPO) (as % w/w) ([4]; 6° C.): 2.13 % w/w | Benzoyl Peroxide (BPO) (as % w/w) ([4]; 25° C.): 2.00 % w/w | Benzoyl Peroxide (BPO) (as % w/w) ([4]; 30° C.): 2.05 % w/w | Benzoyl Peroxide (BPO) (as % w/w) ([4]; 40° C.): 1.69 % w/w | Benzoyl Peroxide (BPO) (as % w/w) ([5]; 2 weeks, 6° C.): 0.99 % w/w | Benzoyl Peroxide (BPO) (as % w/w) ([5]; 2 weeks, 25° C.): 0.95 % w/w | Benzoyl Peroxide (BPO) (as % w/w) ([5]; 2 weeks, 40° C.): 0.94 % w/w | Benzoyl Peroxide (BPO) (as % w/w) ([5]; 6 months, 6° C.): 0.99 % w/w | Benzoyl Peroxide (BPO) (as % w/w) ([5]; 6 months, 25° C.): 0.91 % w/w | Benzoyl Peroxide (BPO) (as % w/w) ([5]; 6 months, 40° C.): 0.35 % w/w | Benzoyl Peroxide (BPO) (as % w/w) ([5]; 30 days, 6° C.): 0.98 % w/w | Benzoyl Peroxide (BPO) (as % w/w) ([5]; 30 days, 25° C.): 0.95 % w/w | Benzoyl Peroxide (BPO) (as % w/w) ([5]; 30 days, 40° C.): 0.90 % w/w | Benzoyl Peroxide (BPO) (as % w/w) ([5]; 90 days, 6° C.): 0.99 % w/w | Benzoyl Peroxide (BPO) (as % w/w) ([5]; 90 days, 25° C.): 0.93 % w/w | Benzoyl Peroxide (BPO) (as % w/w) ([5]; 90 days, 40° C.): 0.69 % w/w | Benzoyl peroxide (as % w/w) ([6]; 6 months, 6° C.): 5.2 % w/w | Benzoyl peroxide (as % w/w) ([6]; 6 months, 25° C.): 5.14 % w/w | Benzoyl peroxide (as % w/w) ([6]; 6 months, 30° C.): 5.02 % w/w | Benzoyl peroxide (as % w/w) ([6]; 6 months, 40° C.): 4.81 % w/w | Benzoyl peroxide (as % w/w) ([6]; 90 days, 6° C.): 5.25 % w/w | Benzoyl peroxide (as % w/w) ([6]; 90 days, 25° C.): 5.23 % w/w | Benzoyl peroxide (as % w/w) ([6]; 90 days, 30° C.): 5.30 % w/w | Benzoyl peroxide (as % w/w) ([6]; 90 days, 40° C.): 5.16 % w/w | Benzoyl Peroxide (BPO) (as % w/w) ([7]; 2 weeks, 6° C.): 0.99 % w/w | Benzoyl Peroxide (BPO) (as % w/w) ([7]; 2 weeks, 25° C.): 0.97 % w/w | Benzoyl Peroxide (BPO) (as % w/w) ([7]; 2 weeks, 30° C.): 0.97 % w/w | Benzoyl Peroxide (BPO) (as % w/w) ([7]; 2 weeks, 40° C.): 0.94 % w/w | Benzoyl Peroxide (BPO) (as % w/w) ([7]; 6 months, 6° C.): 1.01 % w/w | Benzoyl Peroxide (BPO) (as % w/w) ([7]; 6 months, 25° C.): 0.95 % w/w | Benzoyl Peroxide (BPO) (as % w/w) ([7]; 6 months, 30° C.): 0.92 % w/w | Benzoyl Peroxide (BPO) (as % w/w) ([7]; 6 months, 40° C.): 0.40 % w/w | Benzoyl Peroxide (BPO) (as % w/w) ([7]; 90 days, 6° C.): 1.00 % w/w | Benzoyl Peroxide (BPO) (as % w/w) ([7]; 90 days, 25° C.): 0.94 % w/w | Benzoyl Peroxide (BPO) (as % w/w) ([7]; 90 days, 30° C.): 0.93 % w/w | Benzoyl Peroxide (BPO) (as % w/w) ([7]; 90 days, 40° C.): 0.73 % w/w | Benzoyl Peroxide (BPO) (as % w/w) ([8]; 2 weeks, 6° C.): 5.22 % w/w | Benzoyl Peroxide (BPO) (as % w/w) ([8]; 2 weeks, 25° C.): 5.24 % w/w | Benzoyl Peroxide (BPO) (as % w/w) ([8]; 2 weeks, 30° C.): 5.23 % w/w | Benzoyl Peroxide (BPO) (as % w/w) ([8]; 2 weeks, 40° C.): 5.12 % w/w | Benzoyl Peroxide (BPO) (as % w/w) ([8]; 6 months, 6° C.): 5.16 % w/w | Benzoyl Peroxide (BPO) (as % w/w) ([8]; 6 months, 25° C.): 4.80 % w/w | Benzoyl Peroxide (BPO) (as % w/w) ([8]; 6 months, 30° C.): 4.91 % w/w | Benzoyl Peroxide (BPO) (as % w/w) ([8]; 6 months, 40° C.): 4.59 % w/w | Benzoyl Peroxide (BPO) (as % w/w) ([9]; 6 months, 6° C.): 2.10 % w/w | Benzoyl Peroxide (BPO) (as % w/w) ([9]; 6 months, 25° C.): 2.00 % w/w | Benzoyl Peroxide (BPO) (as % w/w) ([9]; 6 months, 30° C.): 1.94 % w/w | Benzoyl Peroxide (BPO) (as % w/w) ([9]; 6 months, 40° C.): 1.45 % w/w | Benzoyl Peroxide (BPO) (as % w/w) ([9]; 90 days, 6° C.): 2.02 % w/w | Benzoyl Peroxide (BPO) (as % w/w) ([9]; 90 days, 25° C.): 1.97 % w/w | Benzoyl Peroxide (BPO) (as % w/w) ([9]; 90 days, 30° C.): 1.97 % w/w | Benzoyl Peroxide (BPO) (as % w/w) ([9]; 90 days, 40° C.): 1.73 % w/w | Benzoyl Peroxide (BPO) (as % w/w) ([10]; 2 weeks, 25° C.): 5.43 % w/w | Benzoyl Peroxide (BPO) (as % w/w) ([10]; 2 weeks, 30° C.): 5.35 % w/w | Benzoyl Peroxide (BPO) (as % w/w) ([10]; 2 weeks, 40° C.): 5.34 % w/w | Benzoyl Peroxide (BPO) (as % w/w) ([10]; 90 days, 6° C.): 5.48 % w/w | Benzoyl Peroxide (BPO) (as % w/w) ([10]; 90 days, 25° C.): 5.34 % w/w | Benzoyl Peroxide (BPO) (as % w/w) ([10]; 90 days, 30° C.): 5.33 % w/w | Benzoyl Peroxide (BPO) (as % w/w) ([10]; 90 days, 40° C.): 5.19 % w/w
SMILES: O=C(OOC(=O)c1ccccc1)c1ccccc1 [Benzoyl Peroxide]
